Tests used:
[1] = system: ryegrass, Italian; assay: Test E preemergence; assay type: in vivo, Lolium multiflorum; conditions: 21 days, scale 0 to 100
Source text: (§1) Seeds of plant species selected from bermudagrass (Cynodon dactylon), Surinam grass (Brachiaria decumbens), crabgrass, large (large crabgrass, Digitaria sanguinalis), crabgrass, naked (naked crabgrass, Digitaria nuda), foxtail, green (green foxtail, Setaria viridis), johnsongrass (Sorghum halepense), kochia (Kochia scoparia), morningglory (pitted morningglory, Ipomoea lacunosa), nutsedge, purple (purple nutsedge, Cyperus rotundus), ragweed (common ragweed, Ambrosia elation), mustard, black (black mustard, Brassica nigra), guineagrass (Panicum maximum), dallisgrass (Paspalum dilatatum), barnyardgrass (Echinochloa crus-galli), sandbur (southern sandbur, Cenchrus echinatus), sowthistle (common sowthistle, Sonchus oleraceous), ryegrass, Italian (Italian ryegrass, Lolium multiflorum), signalgrass (broadleaf signalgrass, Brachiaria platyphylla), dayflower, VA (Virginia (VA) dayflower, Commelina virginica), bluegrass (annual bluegrass, Poa annua), quackgrass (Elytrigia repens), mallow (common mallow, Malva sylvestris), buckwheat, wild (wild buckwheat, Polygonum convolvulus), leafy spurge (Euphorbia esula), common chickweed (Stellaria media), wild poinsettia (Euphorbia heterophylla), pigweed, palmer (palmer pigweed, Amaranthus palmeri), and pigweed (redroot pigweed, Amaranthus retroflexus) were planted into a blend of loam soil and sand and treated preemergence with test chemicals formulated in a non-phytotoxic solvent mixture which included a surfactant.
(§2) Treated plants and controls were maintained in a greenhouse for 21 days, after which time all species were compared to controls and visually evaluated. Plant response ratings, summarized in Table E, are based on a scale of 0 to 100 where 0 is no effect and 100 is complete control. A dash (-) response means no test result.

[2] = system: horseweed; assay: Test F postemergence; assay type: in vivo, Conyza canadensis; conditions: scale 0 to 100
Source text: (§3) Seeds of plant species selected from corn (Zea mays), soybean (Glycine max), velvetleaf (Abutilon theophrasti), lambsquarters (Chenopodium album), wild poinsettia (Euphorbia heterophylla), pigweed, palmer (palmer pigweed, Amaranthus palmeri), common waterhemp (Amaranthus rudis), surinam grass (Brachiaria decumbens), large crabgrass (Digitaria sanguinalis), crabgrass, Brazil (Brazilian crabgrass, Digitaria horizontalis), fall panicum (Panicum dichotomiflorum), giant foxtail (Setaria faberii), green foxtail (Setaria viridis), goosegrass (Eleusine indica), johnsongrass (Sorghum halepense), common ragweed (Ambrosia elation), barnyardgrass (Echinochloa crus-galli), southern sandbur (Cenchrus echinatus), arrowleaf sida (Sida rhombifolia), Italian ryegrass (Lolium multiflorum), dayflower, VA (Virginia (VA) dayflower, Commelina virginica), field bindweed (Convolvulus arvensis), cocklebur (common cocklebur, Xanthium strumarium), morningglory (Ipomoea coccinea), nightshade (eastern black nightshade, Solanum ptycanthum), kochia (Kochia scoparia), yellow nutsedge (Cyperus esculentus), and hairy beggarticks (Bidens pilosa), were planted into a silt loam soil and treated preemergence with test chemicals formulated in a non-phytotoxic solvent mixture which included a surfactant.
(§4) At the same time, plants from these crop and weed species and also horseweed (Canada horseweed, Conyza canadensis), smartweed (ladysthumb smartweed, Polygonum persicaria), waterhemp_RES1, (ALS & Triazine resistant common waterhemp, Amaranthus rudis), and waterhemp_RES2, (ALS & HPPD resistant common waterhemp, Amaranthus rudis) were treated with postemergence applications of test chemicals formulated in the same manner. Plants ranged in height from 2 to 18 cm for postemergence treatments (1- to 4-leaf stage). Treated plants and controls were maintained in a greenhouse for 14 to 21 days, after which time all species were compared to controls and visually evaluated. Plant response ratings, summarized in Table F, are based on a scale of 0 to 100 where 0 is no effect and 100 is complete control. A dash (-) response means no test result.

[3] = system: Surinam grass; assay: Test E preemergence; assay type: in vivo, Brachiaria decumbens; conditions: 21 days, scale 0 to 100
Source text: as §1, §2

[4] = system: wild poinsettia; assay: Test F postemergence; assay type: in vivo, Euphorbia heterophylla; conditions: scale 0 to 100
Source text: as §3, §4

[5] = system: pigweed, palmer; assay: Test F postemergence; assay type: in vivo, Amaranthus palmeri; conditions: scale 0 to 100
Source text: as §3, §4

[6] = system: barnyardgrass; assay: Test C flooded paddy test; assay type: in vivo, Echinochloa crus-galli; conditions: Flood
Outline: (§5)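 Ratings were visual and made relative to untreated controls after 13 to 15 greenhouse days.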

[7] = system: ducksalad; assay: Test C flooded paddy test; assay type: in vivo, Heteranthera limosa; conditions: Flood
Outline: as §5

[8] = 31 g ai/ha, scale 0 to 100 (0 no effect, 100 complete control)
[9] = 62 g ai/ha, scale 0 to 100 (0 no effect, 100 complete control)
[10] = 125 g ai/ha, scale 0 to 100 (0 no effect, 100 complete control)

SMILES	Plant response rating, Ryegrass, Italian ([1]; 16 g ai/ha)	Plant response rating, Ryegrass, Italian ([1]; 31 g ai/ha)	Plant response rating, Ryegrass, Italian ([1]; 62 g ai/ha)	Plant response rating, Ryegrass, Italian ([1]; 125 g ai/ha)	Plant response rating, Ryegrass, Italian ([1]; 250 g ai/ha)	Plant response rating, Horseweed ([2]; Postemergence, 31 g ai/ha)	Plant response rating, Horseweed ([2]; Postemergence, 125 g ai/ha)	Plant response rating, Horseweed ([2]; Postemergence, 250 g ai/ha)	Plant response rating, Horseweed ([2]; postemergence, 62 g ai/ha)	Plant response rating, Horseweed ([2]; postemergence, 500 g ai/ha)	Plant response rating, Surinam Grass ([3]; 16 g ai/ha)	Plant response rating, Surinam Grass ([3]; 31 g ai/ha)	Plant response rating, Surinam Grass ([3]; 62 g ai/ha)	Plant response rating, Surinam Grass ([3]; 125 g ai/ha)	Plant response rating, Surinam Grass ([3]; 250 g ai/ha)	Plant response rating, Wild Poinsettia ([4]; Postemergence, 31 g ai/ha)	Plant response rating, Wild Poinsettia ([4]; Postemergence, 125 g ai/ha)	Plant response rating, Wild Poinsettia ([4]; Postemergence, 250 g ai/ha)	Plant response rating, Wild Poinsettia ([4]; postemergence, 62 g ai/ha)	Plant response rating, Wild Poinsettia ([4]; postemergence, 500 g ai/ha)	also measured
CCc1cc(C(=O)NCC(F)(F)F)nn1Cc1ccnc(C(F)(F)F)c1 [Compound 78, 5-ethyl-N-(2,2,2-trifluoroethyl)-1-[[(2-trifluoromethyl)-4-pyridinyl]methyl]-1H-pyrazole-3-carboxamide]	10	50	90	100	100	25	40	50	30	75	20	80	90	90	100	25	70	80	50	90	Plant response rating, Pigweed, Palmer ([5]; Postemergence, 31 g ai/ha): 50; Plant response rating, Pigweed, Palmer ([5]; Postemergence, 125 g ai/ha): 70; Plant response rating, Pigweed, Palmer ([5]; Postemergence, 250 g ai/ha): 90; Plant response rating, Pigweed, Palmer ([5]; postemergence, 62 g ai/ha): 60; Plant response rating, Pigweed, Palmer ([5]; postemergence, 500 g ai/ha): 98
CCc1cc(C(=O)NC(C)C)nn1Cc1ccnc(C(F)(F)F)c1 [Compound 103]	50	98	100	100	100	–	–	–	–	–	95	100	100	100	100	–	–	–	–	–	–
CCOc1cc(C(=O)NCC(F)(F)F)nn1Cc1ccnc(C(F)(F)F)c1 [Compound 104]	75	98	100	100	100	25	35	35	30	45	50	75	95	100	100	45	95	90	60	100	Plant response rating, Pigweed, Palmer ([5]; Postemergence, 31 g ai/ha): 60; Plant response rating, Pigweed, Palmer ([5]; Postemergence, 125 g ai/ha): 70; Plant response rating, Pigweed, Palmer ([5]; Postemergence, 250 g ai/ha): 75; Plant response rating, Pigweed, Palmer ([5]; postemergence, 62 g ai/ha): 80; Plant response rating, Pigweed, Palmer ([5]; postemergence, 500 g ai/ha): 95
CCCc1cc(C(=O)NCC(F)(F)F)nn1Cc1ccnc(C(F)(F)F)c1 [Compound 105]	65	85	100	100	100	20	35	50	25	70	35	40	80	95	100	40	70	100	50	100	Plant response rating, Pigweed, Palmer ([5]; Postemergence, 31 g ai/ha): 30; Plant response rating, Pigweed, Palmer ([5]; Postemergence, 125 g ai/ha): 60; Plant response rating, Pigweed, Palmer ([5]; Postemergence, 250 g ai/ha): 75; Plant response rating, Pigweed, Palmer ([5]; postemergence, 62 g ai/ha): 25; Plant response rating, Pigweed, Palmer ([5]; postemergence, 500 g ai/ha): 80
CCCNC(=O)c1cc(CCCl)n(Cc2ccnc(C(F)(F)F)c2)n1 [Compound 145]	–	–	–	–	–	–	–	–	–	–	–	–	–	–	–	–	–	–	–	–	Plant response rating, Barnyardgrass [6, 8]: 0; Plant response rating, Barnyardgrass [6, 9]: 0; Plant response rating, Barnyardgrass ([6]; 125 g ai/ha, scale 0 to 100): 30; Plant response rating, Barnyardgrass ([6]; 250 g ai/ha, scale 0 to 100): 40; Plant response rating, Ducksalad [7, 8]: 100; Plant response rating, Ducksalad [7, 9]: 100; Plant response rating, Ducksalad ([7]; 125 g ai/ha, scale 0 to 100): 100; Plant response rating, Ducksalad ([7]; 250 g ai/ha, scale 0 to 100): 100
CCOc1cc(C(=O)NC(C)C)nn1Cc1ccnc(C(F)(F)F)c1 [Compound 188]	–	–	–	–	–	20	30	40	30	50	–	–	–	–	–	60	60	80	70	85	Plant response rating, Pigweed, Palmer ([5]; Postemergence, 31 g ai/ha): 50; Plant response rating, Pigweed, Palmer ([5]; Postemergence, 125 g ai/ha): 50; Plant response rating, Pigweed, Palmer ([5]; Postemergence, 250 g ai/ha): 60; Plant response rating, Pigweed, Palmer ([5]; postemergence, 62 g ai/ha): 50; Plant response rating, Pigweed, Palmer ([5]; postemergence, 500 g ai/ha): 70
CCOc1cc(C(=O)NC2CC2)nn1Cc1ccnc(C(F)(F)F)c1 [Compound 189]	20	50	100	–	–	–	–	–	–	–	25	80	100	–	–	–	–	–	–	–	Plant response rating, Ryegrass, Italian ([1]; 4 g ai/ha): 0; Plant response rating, Ryegrass, Italian ([1]; 8 g ai/ha): 0; Plant response rating, Surinam Grass ([3]; 4 g ai/ha): 0; Plant response rating, Surinam Grass ([3]; 8 g ai/ha): 0
CCONC(=O)c1cc(OCC)n(Cc2ccnc(C(F)(F)F)c2)n1 [Compound 195]	–	–	–	–	–	–	–	–	–	–	–	–	–	–	–	–	–	–	–	–	Plant response rating, Barnyardgrass [6, 8]: 0; Plant response rating, Barnyardgrass [6, 9]: 30; Plant response rating, Barnyardgrass [6, 10]: 40; Plant response rating, Barnyardgrass ([6]; 250 g ai/ha, scale 0 to 100): 45; Plant response rating, Ducksalad [7, 8]: 0; Plant response rating, Ducksalad [7, 9]: 20; Plant response rating, Ducksalad [7, 10]: 85; Plant response rating, Ducksalad ([7]; 250 g ai/ha, scale 0 to 100): 85
CCc1cc(C(=O)NC2CC2)nn1Cc1ccnc(OCC(F)(F)F)c1 [Compound 200]	–	–	–	–	–	–	–	–	–	–	–	–	–	–	–	–	–	–	–	–	Plant response rating, Barnyardgrass [6, 8]: 0; Plant response rating, Barnyardgrass [6, 9]: 0; Plant response rating, Barnyardgrass [6, 10]: 20; Plant response rating, Barnyardgrass ([6]; 250 g ai/ha, scale 0 to 100): 40; Plant response rating, Ducksalad [7, 8]: 30; Plant response rating, Ducksalad [7, 9]: 30; Plant response rating, Ducksalad [7, 10]: 100; Plant response rating, Ducksalad ([7]; 250 g ai/ha, scale 0 to 100): 100
CCc1cc(C(=O)NC2CC2)nn1Cc1cc(C(F)(F)C(F)(F)F)nn1C [Compound 226]	–	–	–	–	–	–	–	–	–	–	–	–	–	–	–	–	–	–	–	–	Plant response rating, Barnyardgrass [6, 8]: 0; Plant response rating, Barnyardgrass [6, 9]: 0; Plant response rating, Barnyardgrass [6, 10]: 0; Plant response rating, Ducksalad [7, 8]: 30; Plant response rating, Ducksalad [7, 9]: 60; Plant response rating, Ducksalad [7, 10]: 75
